According to US20070298994A1, “Use of 3-Mercapto-3-Methyl-Hexan-1-Ol for Use as Malodour Standard” (SYMRISE GMBH & CO. KG, priority 2004, published 2007):

Test: Odour threshold value in air on a dynamic olfactometer
Conditions: for odour threshold value in air: dynamic olfactometer, mean of 24 measured values (8 trained assessors, three passes), refers to the pure substance
Method: The odour threshold values in air were determined for the substance (E)-3-methyl-2-hexenoic acid also occurring in sweat and 3-mercapto-3-methyl-hexan-1-ol recently found in sweat.
The odour threshold value denotes the concentration of an olfactorily perceptible substance in air at which this can be distinguished from the odourless ambient air.
Determination is carried out on a dynamic olfactometer. A sample of 20 μl each of dilute solutions of the components is placed in a container with 7 l air. The samples in the olfactometer are diluted clearly below the odour threshold by defined addition of odourless air. In the olfactometer, the concentrations in the sample air are increased little by little until all the assessors have characterised a perception. A group of 8 trained assessors determines the concentration of the samples to be distinguished in odour from air on three passes each so that the mean value of 24 measured values leads to the respective concentrations. The (E)-3-methyl-2-hexenoic acid is measured at 1% and the 3-mercapto-3-methyl-hexan-1-ol at 0.1% in odourless dipropylene glycol. The different dilutions were taken into account for calculating the threshold values. The threshold values refer to the pure substances. The threshold value of the (E)-3-methyl-2-hexenoic acid was determined at 15.1 ng/l air. The threshold value for the 3-mercapto-3-methyl-hexan-1-ol was determined at 0.015 ng/l air. All assessors evaluated the threshold value of 3-mercapto-3-methyl-hexan-1-ol lower than (E)-3-methyl-2-hexenoic acid in all passes.

| SMILES | odour threshold value in air | factor by which threshold value is lower than that of (E)-3-methyl-2-hexenoic acid (odour threshold values in air) |
| --- | --- | --- |
| CCCC(C)(S)CCO (stereo not drawn) [3-mercapto-3-methyl-hexan-1-ol] | 0.015 ng/l air | 1000 |
| CCC/C(C)=C/C(=O)O [(E)-3-methyl-2-hexenoic acid, reference compound] | 15.1 ng/l air | – |
